Read-outs that look alike come from different tables or passages of the source.
Experiments:
[1] = Particle size parameter test (BT-2900 image particle size analysis system); type: physicochemical; settings: for Average particle size / D10 / D50 / D90: quantity distribution, image particle size analysis
Text: (§1) Example 4. Particle Size Parameters and Powder Characteristics (Quantity Distribution) of L-Arabinose

[2] = Flowability test (particle and powder characteristic analyzer, FT-102D); type: physicochemical
Text: as §1
Example 13. Performance Test Results for the Granules of the Present Disclosure

[3] = Granularity distribution of sample (standard sieve); type: physicochemical; settings: for Granularity distribution of sample (standard sieve) 20-80 mesh / Granularity distribution of sample (standard sieve) <80 mesh / Granularity distribution of sample (standard sieve) >20 mesh: Example 8 samples, seed crystal specification and fed-batch time varied
Method: 1 kg of L-arabinose starting material was dissolved in 1.2 kg of purified water at 60° C. After the solution was completely clear, 1 g of activated carbon ([…] of the L-arabinose) was added. The mixture was incubated at 60° C. for 30 min and then subjected to suction filtration under vacuum successively through 25 μm and 0.45 μm filter membranes to remove the activated carbon, and a clear filtered sugar liquid (about 1800 mL in volume) was obtained. About 800 mL of the clear filtered sugar liquid was added to a three-necked flask, and stirred and evaporated under reduced pressure in a water bath set at a temperature of 62° C. until the sugar degree reached 58-60% Brix. A proper amount of L-arabinose was added as seed crystals (as shown in Table 8-1 below, seed crystal with different specifications was selected: 40-60 mesh, 16.5 g; 60-80 mesh, 6 g; 80-100 mesh, 1.5 g). The mixture was stirred (double-layered type of stirring, with two-half-crescent type for the lower layer and three-bladed propeller type for the upper layer) at a rate of 90-110 rpm until the seed crystal was completely dispersed. Then the sugar liquid was added at a rate of 50-100 mL/h in a fed-batch manner for a time period of 12/18 h. After the fed-batch addition was completed, the concentrating was continued for 1-2 h. It was about 14 h from the time the seed crystal was added to the time of discharging.
According to the results shown in Table 8-1, the specific surface area of the seed crystal of 80-100 mesh is relatively […] compared with that of the seed crystal of other specifications (as shown in Table 8-2), but the particle size distribution of the sample obtained by experiment is relatively uniform: the proportion of 20-80 mesh is more than 89.7%, and the maximum proportion is more than 90%, which fully complies with the requirements of the existing pharmacopoeia (Chinese pharmacopoeia (2020)) for granules: granules cannot pass through a No. 1 sieve (10 mesh, 2000 μm) and the total quantity of granules which can pass through a No. 5 sieve (80 mesh, pore size of […]) should not exceed 15%.

SPF mice = experiment: Bowel preparation in mice; type: in vivo
Method: 5.1 Experimental animals and feeding thereof: SPF (Specific pathogen free) mice, 6 weeks old; normal feed was D12450-B feed: 67.35 wt % carbohydrates, 19.2 wt % crude protein, 4.3 wt % fat. The temperature of the room was kept at 24-26° C. with humidity at 40-60%.
5.2 Experimental method and procedure:
The SPF mice were randomly divided into a blank control group, a positive control group and a treatment group, 20 mice per group, half being male and half female. Administration method: Animals in each group were fasted (water was accessible) from last 22:00 before the day of experiment, were each given ⅓ the calculated amount of drug by intragastrical administration at 7:00, 9:00 and 11:00 on the day of experiment, were each given 0.1 mL of purified water at 12:00, 13:00 and 14:00, and were dissected 3.5 h after the last administration.

Humans = experiment: Bowel preparation in humans; type: in vivo
Method: Administration Sample: L-Arabinose Prepared in Example 1 Subject: weighing 73 kg Administration Regimen: The subject drank water normally on an empty stomach after getting up in the morning. At 10:06, the subject dissolved 30 g of L-arabinose in about 100-150 mL of mineral water and consumed the solution in about 5 min.

[4] = post-centrifugation sampling-manual material spreading and drying oven drying
[5] = listed as Example 10 sample of batch 2ª
[6] = screw feeding-back-mixing bed drying
[7] = listed as Example 10 sample of batch 1ª

Row | Average particle size [1] [μm] | D10 [1] [μm] | D50 [1] [μm] | D90 [1] [μm] | Bulk density [2] | Carr flowability index [2] | Compressibility [2] | Floodability index [2] | Flowability (Hausner ratio) [2] | Hausner ratio [2] | Tap density [2] | Angle of repose [2] | Granularity distribution of sample (standard sieve) 20-80 mesh [3] | Granularity distribution of sample (standard sieve) <80 mesh [3] | Granularity distribution of sample (standard sieve) >20 mesh [3] | 20-80 mesh proportion of sample [3, 4] [%] | Structure (SMILES) | other results
1 | 75 | 27 | 63 | 137 | 0.55 g/mL | 79 | 40.2% | 75 | Very poor | 1.7 | 0.93 g/mL | – | – | – | – | – | O[C@@H]1[C@@H](O)[C@@H](O)CO[C@H]1O [Commercial product (T1)] | Angle of repose ([2]; in ° (unit assumed)): 51.05
2 | 125 | 43 | 109 | 232 | 0.56 | 99 | 24.3 | 75.0 | Good | 1.2 | 0.74 | 38.76 | 81.6 | 1.5 | 16.9 | – | O=C[C@H](O)[C@@H](O)[C@@H](O)CO [Example 3, L-arabinose] | –
3 | 33 | 11 | 30 | 63 | 0.5 g/mL | 79 | 41.4% | 75 | Very poor | 1.7 | 0.85 g/mL | – | – | – | – | – | O[C@@H]1[C@@H](O)[C@@H](O)CO[C@H]1O [Commercial product (Y1)] | Angle of repose ([2]; in ° (unit assumed)): 51.73
4 | 148.8 | 164.8 | 288.1 | 448.8 | 0.5 | 102.0 | 23.1 | 75.0 | Acceptable | 1.3 | 0.65 | 34.29 | – | – | – | 90.6 | O=C[C@H](O)[C@@H](O)[C@@H](O)CO [Example 11, L-arabinose] | –
5 | 149 | 49 | 138 | 261 | 0.7 g/mL | – | 17.1% | 75.0 | Good | 1.2 | 0.85 g/mL | – | 71.2% | 5.4% | 23.4% | – | O[C@@H]1[C@@H](O)[C@@H](O)OC[C@@H]1O [Example 1, β-L-(+)-arabinose] | Dosage relative to the positive control group to achieve the same effect (SPF mice; 12 g/kg vs PEG 31.5 g/kg): 38%; Residue in the rectum and colon after the dissection (SPF mice; dissected 3.5 h after the last administration, L-arabinose 12 g/kg, PEG 31.5 g/kg): no residue was left in the rectum and colon; Stools observed before the dissection (SPF mice; intragastrical, three doses, L-arabinose 12 g/kg, PEG 31.5 g/kg): Watery and loose stools; Stool passed, first bathroom visit (Humans; 30 g oral, at 10:42 (dose at 10:06)): loose stool; Stool passed, second bathroom visit (Humans; 30 g oral, at 11:11): watery stool; Stool passed, third bathroom visit (Humans; 30 g oral, at 11:55): watery stool with little residue; Stool passed, fourth bathroom visit (Humans; 30 g oral, at 13:27): light yellow watery stool without residue; Time from administration to first stool (Humans; one subject, 30 g oral in 100-150 mL water): About 40 min; span ([1]; particle size analysis): 0.985; Angle of repose ([2]; in ° (unit assumed)): 40.01
6 | – | – | – | – | – | – | – | – | – | – | – | – | 89.7% | 3% | 7.3% | – | O[C@@H]1[C@@H](O)[C@@H](O)CO[C@H]1O [No. 5] | –
7 | – | – | – | – | 0.68 | 102.5 | 15.9 | 75.0 | Good | 1.2 | 0.81 | 30.95 | – | – | – | 96.4 | O=C[C@H](O)[C@@H](O)[C@@H](O)CO [Example 10 batch 2, L-arabinose] | Average particle size [1, 5]: 129.2 μm; D10 [1, 5]: 41.88 μm; D50 [1, 5]: 116.4 μm; D90 [1, 5]: 237.9 μm; 20-80 mesh proportion of sample [3, 6]: 79.8%
8 | 189 | 79 | 168 | 331 | – | – | – | – | – | – | – | – | – | – | – | – | O=C[C@H](O)[C@@H](O)[C@@H](O)CO [Example 10 Sample of batch 2^b, L-arabinose] | –
9 | 189 | 82 | 182 | 299 | 0.6 | 102.5 | 20.6 | 75.0 | Good | 1.3 | 0.76 | 38.95 | 61 | 1 | 38 | – | O=C[C@H](O)[C@@H](O)[C@@H](O)CO [Example 2, L-arabinose] | –
10 | 182 | 78 | 174 | 296 | – | – | – | – | – | – | – | – | – | – | – | – | O=C[C@H](O)[C@@H](O)[C@@H](O)CO [Example 10 Sample of batch 1^b, L-arabinose] | –
11 | – | – | – | – | 0.7 | – | 17.1 | 75.0 | Good | 1.2 | 0.85 | 40.01 | – | – | – | 93.0 | O=C[C@H](O)[C@@H](O)[C@@H](O)CO [Example 10 batch 1, L-arabinose] | Average particle size [1, 7]: 134.5 μm; D10 [1, 7]: 48.4 μm; D50 [1, 7]: 125.1 μm; D90 [1, 7]: 230.6 μm; 20-80 mesh proportion of sample [3, 6]: 66.4%
12 | 185.5 | 175.1 | 305.2 | 481.8 | 0.48 | 99 | 24.4 | 75.0 | Good | 1.3 | 0.64 | 39.74 | – | – | – | 93.57 | O=C[C@H](O)[C@@H](O)[C@@H](O)CO [Example 12, L-arabinose] | –
13 | – | – | – | – | – | – | – | – | – | – | – | – | – | – | – | 94.3 | O=C[C@H](O)[C@@H](O)[C@@H](O)CO [Example 14, L-arabinose] | 20-80 mesh proportion of sample ([3]; star valve unloading-back-mixing bed drying): 89%

— patent publication US12655169B2, “Arabinose and preparation and use thereof” (THOMSON BIOTECH (XIAMEN) PTE. LTD., priority 2022, dated 2026)
